From ChEMBL document CHEMBL1145390, “Synthesis and preliminary biological characterization of new semisynthetic derivatives of ramoplanin” (J Med Chem, 2007)
≈ marks a conversion by molar mass, not a printed value. Numbered stars: 1 amine (or outer) side, 2 acyl side, 3 side chain; on linkers, the order of the positions; unused ones are H or OH. Bridge positions count the residues as written; N and C are the ends. Square brackets hold non-standard residues; d marks the D form. Peptide text beside a SMILES is read from it. * marks the point of attachment. Hpg(αMan(1-2)αMan) = N[C@H](C(=O)O)c1ccc(O[C@H]2O[C@H](CO)[C@@H](O)[C@H](O)[C@@H]2O[C@H]2O[C@H](CO)[C@@H](O)[C@H](O)[C@@H]2O)cc1; Octa(2Z,4E)dienoyl(7-Me) = CC(C)C/C=C/C=C\C(=O)*; X1 = NC(=O)[C@@H](O[*:3])[C@H](N[*:1])C(=O)[*:2]; Hpg(3-Cl) = N[C@H](C(=O)O)c1ccc(O)c(Cl)c1; d(aThr) = C[C@@H](O)[C@@H](N)C(=O)O; dHpg = N[C@@H](C(=O)O)c1ccc(O)cc1; Hpg = N[C@H](C(=O)O)c1ccc(O)cc1; aThr = C[C@H](O)[C@H](N)C(=O)O; dOrn = NCCC[C@@H](N)C(=O)O

What was measured:
[1] = Toxicity assessed as hemolysis in erythrocytes at 100 mg/L; format: cell-based, Erythrocyte; conditions: human, read-out: Activity
[2] = Toxicity assessed as hemolysis in erythrocytes at 90 mg/L; format: cell-based, Erythrocyte; conditions: human, erythrocytes; read-out: Activity
[3] = system: Escherichia coli; assay: Antibacterial activity against Escherichia coli SKF-12140 after 24 hrs by broth microdilution method; format: functional; conditions: read-out: MIC
[4] = system: Staphylococcus aureus; assay: Antibacterial activity against methicillin-resistant and vancomycin-intermediate resistant Staphylococcus aureus clinical isolate after 24 hrs by broth microdilution method; format: functional; conditions: read-out: MIC
[5] = system: Candida albicans; assay: Antifungal activity against Candida albicans SKF-2270 after 24 hrs by broth microdilution method; format: functional; conditions: read-out: MIC
[6] = system: Staphylococcus aureus; assay: Antibacterial activity against vancomycin-intermediate resistant Staphylococcus aureus clinical isolate after 24 hrs by broth microdilution method; format: functional
[7] = system: Enterococcus faecalis; assay: Antibacterial activity against Enterococcus faecalis after 24 hrs by broth microdilution method; format: functional; conditions: read-out: MIC
[8] = system: Enterococcus faecium; assay: Antibacterial activity against Enterococcus faecium after 24 hrs by broth microdilution method; format: functional; conditions: read-out: MIC
[9] = system: Staphylococcus aureus; assay: Antibacterial activity against Staphylococcus aureus Smith after 24 hrs by broth microdilution method; format: functional; conditions: read-out: MIC
[10] = system: Staphylococcus aureus; assay: Antibacterial activity against methicillin-resistant Staphylococcus aureus clinical isolate after 24 hrs by broth microdilution method; format: functional; conditions: read-out: MIC
[11] = system: Streptococcus pyogenes; assay: Antibacterial activity against Streptococcus pyogenes C203 after 24 hrs by broth microdilution method; format: functional; conditions: C203, 24 h, read-out: MIC
[12] = Toxicity assessed as hemolysis in erythrocytes at 180 mg/L; format: cell-based, Erythrocyte; conditions: human, erythrocytes; read-out: Activity
[13] = system: Staphylococcus aureus; assay: Antibacterial activity against vancomycin-intermediate resistant Staphylococcus aureus clinical isolate in presence of 30% bovine serum after 24 hrs by broth microdilution method; format: functional
[14] = system: Enterococcus faecium; assay: Antibacterial activity against vancomycin A-resistant Enterococcus faecium clinical isolate in presence of 30% bovine serum after 24 hrs by broth microdilution method; format: functional
[15] = Toxicity assessed as hemolysis in erythrocytes at 200 mg/L; format: cell-based, Erythrocyte; conditions: human, read-out: Activity
[16] = system: Enterococcus faecalis; assay: Antibacterial activity against vancomycin A-resistant Enterococcus faecalis after 24 hrs by broth microdilution method; format: functional; conditions: read-out: MIC
[17] = system: Enterococcus faecium; assay: Antibacterial activity against vancomycin A-resistant Enterococcus faecium clinical isolate after 24 hrs by broth microdilution method; format: functional; conditions: read-out: MIC
[18] = system: Staphylococcus aureus; assay: Antibacterial activity against Staphylococcus aureus Smith in presence of 30% bovine serum after 24 hrs by broth microdilution method; format: functional
[19] = system: Enterococcus faecalis; assay: Antibacterial activity against vancomycin-resistant Enterococcus faecalis in presence of 30% bovine serum after 24 hrs by broth microdilution method; format: functional
[20] = Toxicity assessed as hemolysis in erythrocytes at 400 mg/L; format: cell-based, Erythrocyte; conditions: human, read-out: Activity

Row | Structure (SMILES) | hemolysis at 100 mg/L [1] | hemolysis at 90 mg/L [2] | MIC [3] | MIC [4] | MIC [5] | MIC [6] | MIC [7] | MIC [8] | MIC [9] | MIC [10] | MIC [11] | hemolysis at 180 mg/L [12] | MIC [13] | MIC [14] | hemolysis at 200 mg/L [15] | MIC [16] | MIC [17] | MIC [18] | MIC [19] | hemolysis at 400 mg/L [20]
1 | CC(C)C/C=C/C=C\C(=O)N[C@@H](CC(N)=O)C(=O)N[C@@H]1C(=O)N[C@H](c2ccc(O)cc2)C(=O)N[C@H](CCCN)C(=O)N[C@H]([C@@H](C)O)C(=O)N[C@@H](c2ccc(O)cc2)C(=O)N[C@H](c2ccc(O)cc2)C(=O)N[C@@H]([C@H](C)O)C(=O)N[C@@H](Cc2ccccc2)C(=O)N[C@H](CCCN)C(=O)N[C@@H](c2ccc(O[C@H]3O[C@H](CO)[C@@H](O)[C@H](O)[C@@H]3O[C@H]3O[C@H](CO)[C@@H](O)[C@H](O)[C@@H]3O)cc2)C(=O)N[C@H]([C@@H](C)O)C(=O)N[C@@H](c2ccc(O)cc2)C(=O)NCC(=O)N[C@@H](CC(C)C)C(=O)N[C@H](C)C(=O)N[C@@H](c2ccc(O)c(Cl)c2)C(=O)O[C@@H]1C(N)=O [RAMOPLANIN A2] ({Octa(2Z,4E)dienoyl(7-Me)}-N[X1][dHpg][dOrn][d(aThr)][Hpg][dHpg][aThr]F[dOrn][Hpg(αMan(1-2)αMan)][d(aThr)][Hpg]GL[dA][Hpg(3-Cl)]; ester 2-C) | 87% | 81% | < 32 µg/mL | 1 µg/mL (≈ 0.392 µM) | < 32 µg/mL | 0.25 µg/mL (≈ 0.0979 µM) | < 0.03 µg/mL | < 0.03 µg/mL | < 0.03 µg/mL | 0.06 µg/mL (≈ 0.0235 µM) | < 0.03 µg/mL | 79% |  |  |  |  |  |  |  | 
2 | CC(C)/C=C/C=C/CC(=O)N[C@@H](CC(N)=O)C(=O)NC[C@@H]1C(=O)N[C@H](c2ccc(O)cc2)C(=O)N[C@H](CCCN)C(=O)N[C@H](C(C)C)C(=O)N[C@@H](c2ccc(O)cc2)C(=O)N[C@H](c2ccc(O)cc2)C(=O)N[C@@H]([C@@H](C)O)C(=O)N[C@@H](Cc2ccccc2)C(=O)N[C@H](CCCN)C(=O)N[C@@H](c2ccc(O[C@H]3O[C@H](CO)[C@@H](O)[C@H](O)[C@@H]3O[C@H]3O[C@H](CO)[C@@H](O)[C@H](O)[C@@H]3O)cc2)C(=O)N[C@H]([C@@H](C)O)C(=O)N[C@@H](c2ccc(O)cc2)C(=O)NCC(=O)N[C@@H](CC(C)C)C(=O)N[C@H](C)C(=O)N[C@@H](c2ccc(O)c(Cl)c2)C(=O)O[C@@H]1C(N)=O | 30% |  | > 128 µg/mL | 2 µg/mL (≈ 0.779 µM) | > 128 µg/mL | 1 µg/mL (≈ 0.39 µM) | 0.25 µg/mL (≈ 0.0974 µM) | 0.25 µg/mL (≈ 0.0974 µM) | ≤ 0.125 µg/mL | 0.25 µg/mL (≈ 0.0974 µM) | ≤ 0.125 µg/mL |  | 4 µg/mL | 1 µg/mL | 29% | ≤ 0.125 µg/mL | ≤ 0.125 µg/mL | 1 µg/mL | 1 µg/mL | 
3 | CCC/C=C/C=C/CC(=O)N[C@@H](CC(N)=O)C(=O)NC[C@@H]1C(=O)N[C@H](c2ccc(O)cc2)C(=O)N[C@H](CCCN)C(=O)N[C@H](C(C)C)C(=O)N[C@@H](c2ccc(O)cc2)C(=O)N[C@H](c2ccc(O)cc2)C(=O)N[C@@H]([C@@H](C)O)C(=O)N[C@@H](Cc2ccccc2)C(=O)N[C@H](CCCN)C(=O)N[C@@H](c2ccc(O[C@H]3O[C@H](CO)[C@@H](O)[C@H](O)[C@@H]3O[C@H]3O[C@H](CO)[C@@H](O)[C@H](O)[C@@H]3O)cc2)C(=O)N[C@H]([C@@H](C)O)C(=O)N[C@@H](c2ccc(O)cc2)C(=O)NCC(=O)N[C@@H](CC(C)C)C(=O)N[C@H](C)C(=O)N[C@@H](c2ccc(O)c(Cl)c2)C(=O)O[C@@H]1C(N)=O | 23% |  | > 128 µg/mL | 1 µg/mL (≈ 0.39 µM) | > 128 µg/mL | 0.5 µg/mL (≈ 0.195 µM) | ≤ 0.125 µg/mL | ≤ 0.125 µg/mL | ≤ 0.125 µg/mL | ≤ 0.125 µg/mL | ≤ 0.125 µg/mL |  | 2 µg/mL | 1 µg/mL | 37% |  |  | 0.5 µg/mL | 0.5 µg/mL | 78%
4 | CC(C)C/C=C/C=C/CC(=O)N[C@@H](CC(N)=O)C(=O)NC[C@@H]1C(=O)N[C@H](c2ccc(O)cc2)C(=O)N[C@H](CCCN)C(=O)N[C@H](C(C)C)C(=O)N[C@@H](c2ccc(O)cc2)C(=O)N[C@H](c2ccc(O)cc2)C(=O)N[C@@H]([C@@H](C)O)C(=O)N[C@@H](Cc2ccccc2)C(=O)N[C@H](CCCN)C(=O)N[C@@H](c2ccc(O[C@H]3O[C@H](CO)[C@@H](O)[C@H](O)[C@@H]3O[C@H]3O[C@H](CO)[C@@H](O)[C@H](O)[C@@H]3O)cc2)C(=O)N[C@H]([C@@H](C)O)C(=O)N[C@@H](c2ccc(O)cc2)C(=O)NCC(=O)N[C@@H](CC(C)C)C(=O)N[C@H](C)C(=O)N[C@@H](c2ccc(O)c(Cl)c2)C(=O)O[C@@H]1C(N)=O | 85% |  | > 128 µg/mL | 1 µg/mL (≈ 0.388 µM) | > 128 µg/mL | 0.5 µg/mL (≈ 0.194 µM) | ≤ 0.125 µg/mL | ≤ 0.125 µg/mL | ≤ 0.125 µg/mL | ≤ 0.125 µg/mL | ≤ 0.125 µg/mL |  | 4 µg/mL | 1 µg/mL | 87% |  |  | 1 µg/mL | 0.5 µg/mL | 78%
5 | CCC/C=C/C=C\CC(=O)N[C@@H](CC(N)=O)C(=O)NC[C@@H]1C(=O)N[C@H](c2ccc(O)cc2)C(=O)N[C@H](CCCN)C(=O)N[C@H](C(C)C)C(=O)N[C@@H](c2ccc(O)cc2)C(=O)N[C@H](c2ccc(O)cc2)C(=O)N[C@@H]([C@@H](C)O)C(=O)N[C@@H](Cc2ccccc2)C(=O)N[C@H](CCCN)C(=O)N[C@@H](c2ccc(O[C@H]3O[C@H](CO)[C@@H](O)[C@H](O)[C@@H]3O[C@H]3O[C@H](CO)[C@@H](O)[C@H](O)[C@@H]3O)cc2)C(=O)N[C@H]([C@@H](C)O)C(=O)N[C@@H](c2ccc(O)cc2)C(=O)NCC(=O)N[C@@H](CC(C)C)C(=O)N[C@H](C)C(=O)N[C@@H](c2ccc(O)c(Cl)c2)C(=O)O[C@@H]1C(N)=O | 65% |  | > 128 µg/mL | 1 µg/mL (≈ 0.39 µM) | > 128 µg/mL | 0.5 µg/mL (≈ 0.195 µM) | ≤ 0.125 µg/mL | ≤ 0.125 µg/mL | ≤ 0.125 µg/mL | ≤ 0.125 µg/mL | ≤ 0.125 µg/mL |  | 2 µg/mL | 1 µg/mL | 83% |  |  | 0.5 µg/mL | 0.5 µg/mL | 94%
